Measured values published in patent US20090012179A1, “Use of Tyrphostins to Stimulate Neurite Outgrowth” (priority 2004, published 2009).
Entries after “also recorded” stand apart in the source; their conditions may differ.

Tests used:
[1] = tested on: ERK; assay: ERK activation in NS20Y neuroblastoma cells, immunoblotting for dually phosphorylated ERK; type: cell-based, mouse; conditions: dually phosphorylated ERK by immunoblotting
[2] = tested on: ERK; assay: ERK activation in HEK293 cells; type: cell-based, human
Procedure: (§1) Cell stimulation, immunoblotting, and immunoprecipitation: Cells or neurons are grown in 6-well or 12-well plates to 80-90% confluence. The cells are starved in serum-free DMEM overnight, and then incubated with receptor agonists at 37° C. for the indicated durations. In some experiments, signaling inhibitors are added 45 minutes before simulation. Incubation is terminated by placing the tissue culture cluster on ice and rapidly aspirating the medium, followed by the addition of ice-cold RIPA^+ buffer (50 mM Tris-HCl, pH 7.5, 150 mM NaCl, 1% NP-40, 0.5% deoxycholate, 0.1% SDS, 1 mM NaVO3, and protease inhibitor (Calbiochem, San Diego, Calif.)) and incubation for 15 minutes with shaking. After centrifugation (14,000×g at 4° C. for 15 minutes), the supernatant is collected and the protein concentration is measured and adjusted using RIPA^+ buffer. […] The proteins are transferred to PVDF membrane (Millipore), detected with the primary antibodies (including anti-active ERK; anti-p-Tyr clone 4G10, Upstate; anti-TH; anti-DAT, sigma, anti-β-tubulin, etc.) and visualized with the SuperSignal™ West Pico chemiluminescent kit (Pierce Biotechnology, Rockford, Ill.). The intensity of bands is quantified using ImageQuant™ 5.2 (Amersham). […]
It was determined that A9 could activate ERK while characterizing the transactivation of receptor tyrosine kinases by the dopamine D2 receptor.

[3] = tested on: ERK; assay: ERK activation in primary rat neostriatal neuron cultures; type: cell-based
Procedure: (§2) Primary Neuronal Cultures: The substantia nigra or striatal region is dissected from 4 day-old Sprague-Dawley rats and incubated in minimum essential medium (MEM) containing 20 U/ml papain for 2 hours at 37° C. The tissue is then triturated using fire-polished Pasteur pipettes in MEM supplemented with 10% fetal bovine serum, 0.45% glucose, […] insulin, 0.5 mM glutamine, 100 U/ml penicillin, and 100 μg/ml streptomycin. Cells are plated on 18 mm diameter poly-D-lysine-coated glass coverslips (Fisher 12-545-84 18cir-1D) at a density of 75,000 cells per coverslip for immunofluorescence imaging or in 12-well or 6-well tissue culture plates for immunoblotting studies. […]
Cell stimulation, immunoblotting, and immunoprecipitation: Cells or neurons are grown in 6-well or 12-well plates to 80-90% confluence. […] After centrifugation (14,000×g at 4° C. for 15 minutes), the supernatant is collected and the protein concentration is measured and adjusted using RIPA^+ buffer. […] The proteins are transferred to PVDF membrane (Millipore), detected with the primary antibodies (including anti-active ERK; anti-p-Tyr clone 4G10, Upstate; anti-TH; anti-DAT, sigma, anti-β-tubulin, etc.) and visualized with the SuperSignal™ West Pico chemiluminescent kit (Pierce Biotechnology, Rockford, Ill.). The intensity of bands is quantified using ImageQuant™ 5.2 (Amersham). […]

[4] = tested on: ERK2 (p42); assay: ERK2 (p42) activation in NS20Y cells; type: cell-based, mouse
Procedure: as §1, with “buffer. Samples (30 μl) with equal amounts of protein mixed with Laemmli loading buffer are denatured at 70° C. for 10 minutes and separated by SDS-PAGE.” for “buffer.”

[5] = tested on: ERK; assay: ERK phosphorylation in primary rat SNc dopaminergic neurons, p-ERK staining; type: cell-based; conditions: primary rat SNc neuron culture, A9 1 μM, 1 hour
Procedure: Primary cultures of rat embryonic SNc neurons were stimulated with vehicle (NT) or A9 (1 μM) for 1 hour and then stained for tyrosine hydroxylase (TH) and phospho-ERK (p-ERK). Images were digitally captured with an Olympus CX640 fluorescence microscope.
as §2
Cell preparation for microscopy: Neuroblastoma cells and rat striatal neurons are grown on glass coverslips and treated with poly-D-Lysine. […] The samples are examined by an Olympus CX640 fluorescence microscope, or scanned with a Leica TCS SP confocal laser scanning microscope. Images are digitally captured and recorded with computer. […]

[6] = tested on: SH-SY5Y cells; assay: Neurite length in NGF-treated SH-SY5Y neuroblastoma cells; type: cell-based, human; conditions: 96 and 168 hours; for Neurite length / neurite elongation: SH-SY5Y + NGF 10 ng/ml, FK506 100 nM, A9 10 nM, 100 nM and 1 μM
Procedure: Analysis of neurite length in SH-SY5Y neuroblastoma cells: SH-SY5Y neuroblastoma cells develop axonal-like processes on treatment with NGF. For analysis of process length, cells (20 fields/well) are randomly photographed at 96 and 168 hours. Neurite lengths are measured on photographic prints using a Houston Instrument HI-PAD digitizing tablet connected to a computer with appropriate software (Bioquant IV); only processes more than twice the cell body length are measured. Data from identically treated wells are combined. […] Histograms are compared using a Mann-Whitney U test (α=0.05), which makes no assumptions about the shape of the distribution.
As disclosed herein, high and sustained ERK activation induces neurite growth in […] neuroblastoma cells and protects neuronal cells from neurotoxins. To test this, SH-SY5Y human neuroblastoma cells were used, which can be induced into neuron-like phenotype by NGF treatment. This is an established method for measuring neurite growth-promoting activity in vitro in Dr. Gold's lab (Gold et al., Neurosignals. 13:122-129, 2004; Gold et al., Exp. Neurol. 147:269-278, 1997). […] Representative micrographs at 168 hours for vehicle (control), NGF (10 ng/ml), and NGF (10 ng/ml) plus A9 (100 nM) are shown in FIG. 5B.

SMILES: CC(C)(C)c1cc(C=C(C#N)C#N)cc(C(C)(C)C)c1O [A9, tyrphostin A9]
- ERK activation [1]: robust activation of ERK; also recorded: stimulated ERK activation in NS20Y cells in a time (FIG. 2A) and dose (FIG. 2B)-dependent manner; also recorded: induced robust and sustained ERK activation
- ERK activation ([1]; listed as tyrphostin A9): stimulated robust and sustained ERK activation in a time and dose-dependent manner
- ERK activation [2]: but not in HEK293
- D2 receptor-induced activation of ERK ([2]; A9 pretreatment): prevented D2 receptor-induced activation of ERK
- A9-stimulated ERK activation [3]: also observed
- ERK2 (p42) stimulation [4]: little stimulation on ERK2 (p42); also recorded: little effect on ERK2
- ERK phosphorylation/activation in dopaminergic neurons [5]: induced robust ERK activation
- ERK phosphorylation/activation in dopaminergic neurons ([5]; listed as tyrphostin A9): induced ERK phosphorylation
- Neurite length / neurite elongation [6]: dramatically increased in length
- Neurite length / neurite elongation ([6]; listed as tyrphostin A9): stimulated neurite elongation
- Distribution of neurite length (cumulative histograms), shift to the right versus NGF-treated ([6]; SH-SY5Y): more pronounced
